US20200140375A1, “COMPOSITIONS AND METHODS FOR TREATING CONDITIONS ASSOCIATED WITH ALTERED TCA CYCLE METABOLISM” (IMBRIA PHARMACEUTICALS, INC., priority 2017, published 2020)

Assay: solubility in water
Assay type: physicochemical
Description: The compound of formula (XIII) was made and analyzed.

## N[C@@H](COC(=O)CCC(=O)OCC(O)CO)C(=O)O (stereo partly shown) [formula (XIII)]
  solubility: 1200 mg/mL
